Assays:
Assay type in all cases: functional
[1] = tested on: Phytophthora infestans; experiment: Fungicidal activity against Phytophthora infestans at 250 ppm relative to control
[2] = tested on: Blumeria graminis; experiment: Fungicidal activity against Blumeria graminis at 250 ppm relative to control
[3] = tested on: Puccinia recondita; experiment: Fungicidal activity against Puccinia recondita at 250 ppm relative to control
[4] = tested on: Pyricularia oryzae; experiment: Fungicidal activity against Magnaporthe oryzae at 250 ppm relative to control
[5] = tested on: Botrytis cinerea; experiment: Fungicidal activity against Botryotinia fuckeliana at 250 ppm relative to control
[6] = tested on: Rhizoctonia solani; experiment: Fungicidal activity against Rhizoctonia solani at 250 ppm relative to control

Row | SMILES | Activity [1] | Activity [2] | Activity [3] | Activity [4] | Activity [5] | Activity [6]
1 | Cc1c(/C=N/Nc2ccc(Cl)cc2)no[n+]1[O-] | 45% | 34% | 67% | 0% | 71% | 37%
2 | Cc1c(/C=N/c2ccccc2)no[n+]1[O-] | 73% | 15% | 17% | 7% | 62% | 5%
3 | Cc1c(/C=N/c2ccc(Cl)cc2)no[n+]1[O-] | 77% | 53% | 67% | 29% | 52% | 0%
4 | Cc1ccc(/N=C/c2no[n+]([O-])c2C)cc1C | 53% | 21% | 0% | 11% | 33% | 24%
5 | Cc1c(/C=N/Nc2ccccc2)no[n+]1[O-] | 36% | 53% | 60% | 21% | 43% | 0%
6 | [O-][n+]1onc(-c2ccc3ccccc3c2)c1-c1ccc2ccccc2c1 [3,4-DI(2-NAPHTHYL)FUROXAN] | 14% | 73% | 0% | 60% | 51% | 10%
7 | [O-][n+]1onc(-c2ccc(Cl)cc2)c1-c1ccc(Cl)cc1 [3,4-DI(4-CHLOROPHENYL)FUROXAN] | 28% | 9% | 87% | 14% | 30% | 35%
8 | [O-][n+]1onc(-c2ccc(Cl)cc2Cl)c1-c1ccc(Cl)cc1Cl [3,4-DI-(2,4-DICHLOROPHENYL)FUROXAN] | 7% | 0% | 0% | 38% | 0% | 16%
9 | [O-][n+]1onc(-c2c(Cl)cccc2Cl)c1-c1c(Cl)cccc1Cl [3,4-DI-(2,6-DICHLOROPHENYL)FUROXAN] | 27% | 0% | 0% | 41% | 0% | 0%
10 | [O-][n+]1onc(-c2ccccc2C(F)(F)F)c1-c1ccccc1C(F)(F)F [3,4-DI-(2-(TRIFLUOROMETHYL)PHENYL)FUROXAN] | 0% | 14% | 0% | 0% | 2% | 6%
11 | [O-][n+]1onc(-c2ccccc2Cl)c1-c1ccccc1Cl [3,4-DI-(2-CHLOROPHENYL)FUROXAN] | 20% | 33% | 10% | 13% | 0% | 26%
12 | [O-][n+]1onc(-c2cccnc2Cl)c1-c1cccnc1Cl [3,4-DI-(2-CHLOROPYRIDIN-3-YL)FUROXAN] | 27% | 0% | 10% | 19% | 0% | 11%
13 | [O-][n+]1onc(-c2ccccc2F)c1-c1ccccc1F [3,4-DI-(2-FLUOROPHENYL)FUROXAN] | 0% | 0% | 0% | 6% | 0% | 0%
14 | [O-][n+]1onc(-c2ccc(C(F)(F)F)cc2)c1-c1ccc(C(F)(F)F)cc1 [3,4-DI-(4-(TRIFLUOROMETHYL)PHENYL)FUROXAN] | 53% | 17% | 0% | 6% | 0% | 11%
15 | Cc1ccc(-c2no[n+]([O-])c2-c2ccc(C)s2)s1 [3,4-DI-(5-METHYLTHIOPHEN-2-YL)FUROXAN] | 33% | 17% | 0% | 38% | 0% | 5%
16 | Cc1c(Cn2cncn2)no[n+]1[O-] [3-METHYL-4-[(1,2,4-TRIAZOL-1-YL)METHYL]FUROXAN] | 11% | 25% | 0% | 4% | 8% | 0%
17 | Cc1c(C(c2ccc(Cl)cc2)n2cncn2)no[n+]1[O-] (stereo not given) [4-[(4-CHLOROPHENYL)(1,2,4-TRIAZOL-1-YL)METHYL]-3-METHYLFUROXAN] | 37% | 25% | 0% | 16% | 0% | 0%
18 | Cc1c(C(O)c2ccc(Cl)cc2)no[n+]1[O-] (stereo not given) [4-[(4-CHLOROPHENYL)HYDROXYMETHYL]-3-METHYLFUROXAN] | 20% | 39% | 0% | 0% | 25% | 0%
19 | Cc1c(C(Cl)c2ccc(Cl)cc2)no[n+]1[O-] (stereo not given) [4-[CHLORO(4-CHLOROPHENYL)METHYL]-3-METHYLFUROXAN] | 0% | 8% | 0% | 21% | 0% | 0%
20 | COc1ccc(C(O)c2no[n+]([O-])c2C)cc1 (stereo not given) [4-[HYDROXY(4-METHOXYPHENYL)METHYL]-3-METHYLFUROXAN] | 19% | 0% | 0% | 4% | 17% | 5%
